Assay results from paper PMC9516332 (Frontiers in Oncology, 2022).
pIC50: −log10 of the molar value. Like-named read-outs stand apart in the source and are kept apart here.

Columns and labels:
134 cancer cell lines = assay: Cell viability assay (ATPlite, 72 hours), IC50 on cancer cell line panel
AP-1060 (ETV6-NTRK3) = assay: Cell viability assay; details: read-out: IC50 in cell proliferation assay

## O=C(c1ccc(F)c(F)c1Nc1ccc(I)cc1F)N1CC(O)([C@@H]2CCCCN2)C1 [cobimetinib]
134 cancer cell lines; Homo sapiens, MV4-11, read-out: IC50 in cell proliferation assay, MV4-11 cell line (FLT3 ITD)
  pIC50: 6.95
134 cancer cell lines; Homo sapiens, MeWo, read-out: IC50 in cell proliferation assay, MeWo cell line
  pIC50: 6.48
134 cancer cell lines; Homo sapiens, NCCIT, read-out: IC50 in cell proliferation assay, NCC-IT cell line
  pIC50: 5.89
134 cancer cell lines; Homo sapiens, NCI-H82, read-out: IC50 in cell proliferation assay, cell line NCI-H82
  pIC50: 5.09
134 cancer cell lines; Homo sapiens, NCI-H460, read-out: IC50 in cell proliferation assay, NCI-H460 cell line
  pIC50: 7.11
134 cancer cell lines; Homo sapiens, NCI-H661, read-out: IC50 in cell proliferation assay, NCI-H661 cell line
  pIC50: < 5.00
134 cancer cell lines; Homo sapiens, NCI-H716, read-out: IC50 in cell proliferation assay, cell line NCI-H716 (FGFR2-COL14A1)
  pIC50: 6.04
134 cancer cell lines; Homo sapiens, NCI-H1650, read-out: IC50 in cell proliferation assay, NCI-H1650 cell line (EGFR exon19del)
  pIC50: 6.28
134 cancer cell lines; Homo sapiens, NCI-H1975, read-out: IC50 in cell proliferation assay, NCI-H1975 cell line (EGFR p.L858R + p.T790M)
  pIC50: 7.01
134 cancer cell lines; Homo sapiens, NCI-H2228, read-out: IC50 in cell proliferation assay, NCI-H2228 cell line (EML4-ALK)
  pIC50: 6.14
134 cancer cell lines; Homo sapiens, OVCAR-3, read-out: IC50 in cell proliferation assay, cell line OVCAR-3
  pIC50: < 5.00
134 cancer cell lines; Homo sapiens, PFSK-1, read-out: IC50 in cell proliferation assay, cell line PFSK-1
  pIC50: < 5.00
134 cancer cell lines; Homo sapiens, RL95-2, read-out: IC50 in cell proliferation assay, cell line RL95-2 (EGFR p.A289V)
  pIC50: 7.47
134 cancer cell lines; Homo sapiens, RPMI-7951, read-out: IC50 in cell proliferation assay, cell line RPMI-7951 (BRAF p.V600E)
  pIC50: 7.70
134 cancer cell lines; Homo sapiens, RS4-11, read-out: IC50 in cell proliferation assay, cell line RS4;11
  pIC50: < 5.00
134 cancer cell lines; Homo sapiens, Rec1, read-out: IC50 in cell proliferation assay, cell line REC-1
  pIC50: 5.19
134 cancer cell lines; Homo sapiens, SHP77, read-out: IC50 in cell proliferation assay, cell line SHP-77
  pIC50: < 5.00
134 cancer cell lines; Homo sapiens, SK-BR-3, read-out: IC50 in cell proliferation assay, cell line SK-BR-3 (ERBB2 amplification)
  pIC50: < 5.00
134 cancer cell lines; Homo sapiens, SK-N-AS, read-out: IC50 in cell proliferation assay, cell line SK-N-AS
  pIC50: 7.92
134 cancer cell lines; Homo sapiens, SK-N-FI, read-out: IC50 in cell proliferation assay, cell line SK-N-FI
  pIC50: 7.09
134 cancer cell lines; Homo sapiens, SK-N-MC, read-out: IC50 in cell proliferation assay, cell line SK-N-MC
  pIC50: 5.12
134 cancer cell lines; Homo sapiens, SK-N-SH, read-out: IC50 in cell proliferation assay, cell line SK-N-SH (ALK p.F1174L)
  pIC50: 7.43
134 cancer cell lines; Homo sapiens, SNU-5, read-out: IC50 in cell proliferation assay, cell line SNU-5 (MET amplification)
  pIC50: 7.33
134 cancer cell lines; Homo sapiens, SNU-16, read-out: IC50 in cell proliferation assay, cell line SNU-16 (FGFR2 amplification)
  pIC50: 5.60
134 cancer cell lines; Homo sapiens, SNU-C2B, read-out: IC50 in cell proliferation assay, cell line SNU-C2B (EGFR p.R165Q)
  pIC50: 6.49
134 cancer cell lines; Homo sapiens, SU-DHL-1, read-out: IC50 in cell proliferation assay, cell line SU-DHL-1 (NPM1-ALK)
  pIC50: 6.32
134 cancer cell lines; Homo sapiens, SU-DHL-6, read-out: IC50 in cell proliferation assay, cell line SU-DHL-6
  pIC50: 5.70
134 cancer cell lines; Homo sapiens, SUP-T1, read-out: IC50 in cell proliferation assay, cell line SUP-T1
  pIC50: < 5.00
134 cancer cell lines; Homo sapiens, SW48, read-out: IC50 in cell proliferation assay, cell line SW48 (EGFR p.G719S)
  pIC50: 7.23
134 cancer cell lines; Homo sapiens, SW480, read-out: IC50 in cell proliferation assay, cell line SW480
  pIC50: 6.47
134 cancer cell lines; Homo sapiens, SW626, read-out: IC50 in cell proliferation assay, cell line SW626
  pIC50: 6.84
134 cancer cell lines; Homo sapiens, SW780, read-out: IC50 in cell proliferation assay, cell line SW780 (FGFR3-BAIAP2L1)
  pIC50: 6.90
134 cancer cell lines; Homo sapiens, SW837, read-out: IC50 in cell proliferation assay, cell line SW837
  pIC50: 6.86
134 cancer cell lines; Homo sapiens, SW872, read-out: IC50 in cell proliferation assay, cell line SW872 (BRAF p.V600E)
  pIC50: 7.34
134 cancer cell lines; Homo sapiens, SW900, read-out: IC50 in cell proliferation assay, cell line SW900
  pIC50: 6.53
134 cancer cell lines; Homo sapiens, SW948, read-out: IC50 in cell proliferation assay, cell line SW948
  pIC50: 7.06
134 cancer cell lines; Homo sapiens, SW982, read-out: IC50 in cell proliferation assay, cell line SW982 (BRAF p.V600E)
  pIC50: 5.77
134 cancer cell lines; Homo sapiens, SW-620, read-out: IC50 in cell proliferation assay, cell line SW620
  pIC50: 7.03
134 cancer cell lines; Homo sapiens, T98G, read-out: IC50 in cell proliferation assay, cell line T98G
  pIC50: 5.48
134 cancer cell lines; Homo sapiens, TCC-SUP, read-out: IC50 in cell proliferation assay, cell line TCCSUP
  pIC50: 6.32
134 cancer cell lines; Homo sapiens, THP-1, read-out: IC50 in cell proliferation assay, cell line THP-1
  pIC50: 7.70
134 cancer cell lines; Homo sapiens, U2OS, read-out: IC50 in cell proliferation assay, cell line U2OS
  pIC50: 6.55
134 cancer cell lines; Homo sapiens, U-87 MG, read-out: IC50 in cell proliferation assay, cell line U-87MG ATCC
  pIC50: 6.03
134 cancer cell lines; Homo sapiens, U-118-MG, read-out: IC50 in cell proliferation assay, cell line U-118MG
  pIC50: 6.83
134 cancer cell lines; Homo sapiens, UMUC3, read-out: IC50 in cell proliferation assay, cell line UM-UC-3
  pIC50: 7.37
134 cancer cell lines; Hs766T, read-out: IC50 in cell proliferation assay, Hs 766T cell line
  pIC50: 8.22
134 cancer cell lines; L-82, read-out: IC50 in cell proliferation assay, L-82 cell line (NPM1-ALK)
  pIC50: 6.60
134 cancer cell lines; Rh30, read-out: IC50 in cell proliferation assay, cell line Rh30
  pIC50: 5.47
134 cancer cell lines; read-out: IC50 in cell proliferation assay, 11-18 cell line (EGFR p.L858R)
  pIC50: < 5.00
134 cancer cell lines; read-out: IC50 in cell proliferation assay, Hs 852.T cell line
  pIC50: 6.23
134 cancer cell lines; read-out: IC50 in cell proliferation assay, JAR cell line
  pIC50: 5.20
134 cancer cell lines; read-out: IC50 in cell proliferation assay, cell line 5637
  pIC50: 6.34
134 cancer cell lines; read-out: IC50 in cell proliferation assay, cell line A-388
  pIC50: 6.77
134 cancer cell lines; read-out: IC50 in cell proliferation assay, cell line DB
  pIC50: 5.06
134 cancer cell lines; read-out: IC50 in cell proliferation assay, cell line DEL (NPM1-ALK)
  pIC50: 5.38
134 cancer cell lines; read-out: IC50 in cell proliferation assay, cell line ES-2 (BRAF p.V600E)
  pIC50: 7.49
134 cancer cell lines; read-out: IC50 in cell proliferation assay, cell line PA-1
  pIC50: 6.30
134 cancer cell lines; read-out: IC50 in cell proliferation assay, cell line PC-3
  pIC50: < 5.00
134 cancer cell lines; read-out: IC50 in cell proliferation assay, cell line RD
  pIC50: 7.04
134 cancer cell lines; read-out: IC50 in cell proliferation assay, cell line RKO (BRAF p.V600E)
  pIC50: 7.42
134 cancer cell lines; read-out: IC50 in cell proliferation assay, cell line RL
  pIC50: < 5.00
134 cancer cell lines; read-out: IC50 in cell proliferation assay, cell line RT-4 (FGFR3-TACC3)
  pIC50: 6.52
134 cancer cell lines; read-out: IC50 in cell proliferation assay, cell line SR (NPM1-ALK)
  pIC50: 6.29
134 cancer cell lines; read-out: IC50 in cell proliferation assay, cell line T24
  pIC50: 7.37
134 cancer cell lines; read-out: IC50 in cell proliferation assay, cell line TT (RET p.C634W)
  pIC50: 6.65
134 cancer cell lines; read-out: IC50 in cell proliferation assay, cell line VA-ES-BJ
  pIC50: 5.34
AP-1060 (ETV6-NTRK3)
  pIC50: 5.13
